Measured values from patent publication US20040132107A1, “Functional assay for g-protein-coupled receptors based on insect cells” (priority 2003, published 2004).
One block for each molecule: values may come before it.

Key:
human 5-HT1A GPCR = biological target: T1, human 5-HT1A GPCR (Homo sapiens, UniProt P08908); conditions: FIG. 16
T1 sequence (P08908 1-422): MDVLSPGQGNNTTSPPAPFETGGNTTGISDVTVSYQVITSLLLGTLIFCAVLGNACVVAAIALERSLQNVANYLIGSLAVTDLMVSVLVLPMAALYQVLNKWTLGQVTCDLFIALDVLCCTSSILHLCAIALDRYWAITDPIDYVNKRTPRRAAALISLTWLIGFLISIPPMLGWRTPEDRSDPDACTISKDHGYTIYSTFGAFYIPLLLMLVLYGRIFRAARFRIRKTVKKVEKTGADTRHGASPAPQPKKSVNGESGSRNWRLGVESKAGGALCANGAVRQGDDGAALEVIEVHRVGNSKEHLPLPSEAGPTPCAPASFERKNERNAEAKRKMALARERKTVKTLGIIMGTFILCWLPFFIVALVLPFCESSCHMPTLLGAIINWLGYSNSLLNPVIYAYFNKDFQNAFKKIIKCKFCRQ

human 5-HT2A GPCR = human 5-HT2A GPCR (Homo sapiens, UniProt P28223); test: 5H2A insect-based assay cell lines (Sf9, transiently transfected), fractional luminescence; conditions: increasing concentrations of agonist; FIG. 14
human Dopamine D1A GPCR = human Dopamine D1A GPCR (Homo sapiens, UniProt P21728); test: DADR insect-based assay cell lines (Sf9; Dopamine D1A, Galpha16, aequorin), fractional luminescence
Procedure: In one embodiment, the assay system of the invention was implemented using the human dopamine D1 (hDD1) GPCR, which is normally coupled to a Gs-type G protein.
To assay GPCR antagonists required a modified protocol. […] Light output was monitored for 75 seconds. […] Data analysis was performed as described above. An optional 10 second rocking step was added after each individual well was measured, to ensure that the insect-based assay cells arrayed in the plate stayed in suspension
Agonist and antagonist concentration-response curves were obtained by plotting graphs of A/(A+L) on the Y-axis versusLOG10 of ligand concentration (Molar) on the X-axis. Curve fitting was performed using the software package GraphPad Prism (GraphPad Software, Inc., San Diego, Calif., USA). The 3- or 4-Parameter Logistic equations were used for non-linear regression, and to acquire derived values (EC50 and Hill Slope).

[1] = biological target: T2, human Thromboxane A2 GPCR (Homo sapiens, UniProt P21731); test: TA2R insect-based assay cell lines (Sf9, transiently transfected), fractional luminescence
T2 construct: expressed in transfected cells; host or cells: Sf9, transiently transfected
T2 sequence (P21731 1-343): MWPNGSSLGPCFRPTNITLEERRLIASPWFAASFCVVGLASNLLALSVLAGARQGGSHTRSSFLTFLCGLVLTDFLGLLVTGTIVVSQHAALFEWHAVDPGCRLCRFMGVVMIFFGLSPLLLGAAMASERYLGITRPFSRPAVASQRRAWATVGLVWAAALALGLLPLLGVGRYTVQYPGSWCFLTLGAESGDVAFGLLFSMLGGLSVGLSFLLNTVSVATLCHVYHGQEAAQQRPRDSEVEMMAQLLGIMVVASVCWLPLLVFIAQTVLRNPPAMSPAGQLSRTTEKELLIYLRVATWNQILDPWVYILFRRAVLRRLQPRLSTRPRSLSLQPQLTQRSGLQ
Procedure: Light output was monitored for 70 seconds. […] Data analysis was performed as described above
Agonist and antagonist concentration-response curves were obtained by plotting graphs of A/(A+L) on the Y-axis versusLOG10 of ligand concentration (Molar) on the X-axis.Curve fitting was performed using the software package GraphPad Prism (GraphPad Software, Inc., San Diego, Calif., USA). The 3- or 4-Parameter Logistic equations were used for non-linear regression, and to acquire derived values (EC50 and Hill Slope).

human Histamine H1 GPCR = biological target: T3, human Histamine H1 GPCR (Homo sapiens, UniProt P35367); test: HH1R insect-based assay cell lines (Sf9, transiently transfected), fractional luminescence
T3 construct: expressed in transfected cells; host or cells: Sf9, transiently transfected

[2] = biological target: human beta2 Adrenergic receptor (Homo sapiens, UniProt P07550); test: B2AR insect-based assay cell lines (Sf9, transiently transfected), fractional luminescence; conditions: FIG. 17
[3] = 100 microM, cells expressing all three assay components

Sequence of human Dopamine D1A GPCR (P21728 whole entry): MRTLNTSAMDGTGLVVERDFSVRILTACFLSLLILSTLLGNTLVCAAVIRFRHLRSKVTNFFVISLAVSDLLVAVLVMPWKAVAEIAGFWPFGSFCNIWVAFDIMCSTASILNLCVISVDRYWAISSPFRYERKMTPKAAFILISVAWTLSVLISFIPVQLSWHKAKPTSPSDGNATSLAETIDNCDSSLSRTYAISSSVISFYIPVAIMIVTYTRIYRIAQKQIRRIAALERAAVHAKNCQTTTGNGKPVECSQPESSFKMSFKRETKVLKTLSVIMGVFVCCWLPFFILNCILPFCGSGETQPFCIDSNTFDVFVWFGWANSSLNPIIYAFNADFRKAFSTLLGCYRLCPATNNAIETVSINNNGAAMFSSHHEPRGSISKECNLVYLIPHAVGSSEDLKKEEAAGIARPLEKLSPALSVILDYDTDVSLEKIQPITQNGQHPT
T3 sequence (P35367 whole entry): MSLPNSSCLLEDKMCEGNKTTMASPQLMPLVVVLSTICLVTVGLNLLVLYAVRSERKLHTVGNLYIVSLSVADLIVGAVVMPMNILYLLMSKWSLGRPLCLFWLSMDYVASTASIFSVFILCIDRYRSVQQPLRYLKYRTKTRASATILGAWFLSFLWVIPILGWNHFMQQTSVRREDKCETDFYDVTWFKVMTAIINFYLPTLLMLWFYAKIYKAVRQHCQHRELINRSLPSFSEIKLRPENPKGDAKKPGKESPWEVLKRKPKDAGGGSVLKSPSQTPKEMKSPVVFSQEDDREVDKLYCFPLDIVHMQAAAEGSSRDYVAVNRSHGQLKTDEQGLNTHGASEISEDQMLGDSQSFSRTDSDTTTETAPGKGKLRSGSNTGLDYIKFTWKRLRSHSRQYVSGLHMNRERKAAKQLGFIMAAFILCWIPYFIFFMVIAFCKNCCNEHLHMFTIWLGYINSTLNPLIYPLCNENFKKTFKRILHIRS
Sequence of human beta2 Adrenergic receptor (P07550 whole entry): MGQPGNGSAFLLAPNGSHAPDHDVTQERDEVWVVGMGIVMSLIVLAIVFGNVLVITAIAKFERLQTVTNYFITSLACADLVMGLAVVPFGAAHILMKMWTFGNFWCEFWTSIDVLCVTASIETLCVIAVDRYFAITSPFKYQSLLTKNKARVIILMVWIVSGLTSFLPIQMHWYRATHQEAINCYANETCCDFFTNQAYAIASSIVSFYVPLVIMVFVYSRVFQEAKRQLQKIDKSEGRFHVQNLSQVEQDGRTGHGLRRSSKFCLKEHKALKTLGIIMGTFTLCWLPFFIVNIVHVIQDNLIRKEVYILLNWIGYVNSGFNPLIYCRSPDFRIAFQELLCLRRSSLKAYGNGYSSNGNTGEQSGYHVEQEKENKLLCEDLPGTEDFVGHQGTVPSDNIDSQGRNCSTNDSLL
Sequence of human 5-HT2A GPCR (P28223 whole entry): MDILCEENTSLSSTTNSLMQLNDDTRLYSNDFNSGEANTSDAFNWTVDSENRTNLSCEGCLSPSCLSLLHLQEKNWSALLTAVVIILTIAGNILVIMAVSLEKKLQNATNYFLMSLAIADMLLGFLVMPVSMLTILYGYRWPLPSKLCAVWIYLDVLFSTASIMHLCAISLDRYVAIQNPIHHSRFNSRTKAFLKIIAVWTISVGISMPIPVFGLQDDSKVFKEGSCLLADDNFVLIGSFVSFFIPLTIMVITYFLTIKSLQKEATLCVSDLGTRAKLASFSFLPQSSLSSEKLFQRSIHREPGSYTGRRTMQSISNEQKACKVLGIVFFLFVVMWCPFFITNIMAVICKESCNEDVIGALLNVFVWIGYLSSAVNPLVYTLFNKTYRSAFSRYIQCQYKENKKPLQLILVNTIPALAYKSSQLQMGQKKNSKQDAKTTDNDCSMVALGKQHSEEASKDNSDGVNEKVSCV

Compound: CC(C)NCC(O)COc1cccc2ccccc12 (racemic) [DL-propranalol]
- effect of antagonist pre-incubation on activation by serotonin (human 5-HT1A GPCR; antagonist 10 microM, then serotonin): prevents subsequent activation

- response of assay cells to agonist (human 5-HT1A GPCR; [3]): respond
Compound: NCCc1c[nH]c2ccc(O)cc12 [serotonin]
- agonist concentration-activity curve (human 5-HT2A GPCR): characteristic sigmoidal agonist concentration-activity curve

Compound: OCCN1CCN(CC/C=C2/c3ccccc3Sc3ccc(C(F)(F)F)cc32)CC1 [cis-Flupenthixol]
- block of dopamine agonist activation by pre-incubation with antagonist (human Dopamine D1A GPCR; pre-incubation with antagonist, then dopamine, FIGS. 4 and 6): can be blocked
- antagonist concentration-activity curve (human Dopamine D1A GPCR; varying antagonist against fixed dopamine at 100 microM, FIG. 6): Characteristic sigmoidal antagonist concentration-activity curves

Compound: Oc1cc2c(cc1O)C(c1ccccc1)CNCC2 (stereo not shown) [SKF38393]
- agonist concentration-activity curve (human Dopamine D1A GPCR; increasing concentrations of agonist, FIG. 5): characteristic sigmoidal agonist concentration-activity curve

Compound: CCCCC[C@H](O)/C=C/[C@H]1[C@@H]2CO[C@@H](C2)[C@@H]1C/C=C\CCCC(=O)O [U44069]
- agonist concentration-activity curve ([1]; increasing concentrations of agonist, FIG. 9): characteristic sigmoidal agonist concentration-activity curve

- response in the absence of the Histamine H1 receptor (human Histamine H1 GPCR): no response
Compound: NCCc1c[nH]cn1 [histamine]
- agonist concentration-activity curve (human Histamine H1 GPCR): characteristic sigmoidal agonist concentration-activity curve
- fractional response to histamine in the absence of Galpha16 (human Histamine H1 GPCR): reduced in the absence of Galpha16, it is still significant

- block of U44069 agonist activity by pre-incubation with antagonist ([1]; FIG. 10): can be blocked
Compound: O=C(O)CCC/C=C\C[C@@H]1[C@H](CNNC(=O)Nc2ccccc2)[C@H]2CC[C@@H]1O2 [SQ29,548]
- antagonist concentration-activity curve ([1]; varying antagonist against fixed U44069 at 10 microM, FIG. 10): Characteristic sigmoidal antagonist concentration-activity curves

- response of assay cells to agonist [2, 3]: respond
- agonist response in the absence of Galpha16 ([2]; cells without Galpha16): reduced in magnitude
Compound: NC[C@H](O)c1ccc(O)c(O)c1 [nor-epinephrine]

- block of histamine agonist activity by pre-incubation with antagonist (human Histamine H1 GPCR; FIG. 12): can be blocked
Compound: Cc1ccc(/C(=C\CN2CCCC2)c2ccccn2)cc1.Cl [triprolidone hydrochloride]
- antagonist concentration-activity curve (human Histamine H1 GPCR; varying antagonist against fixed histamine at 100 microM, FIG. 12): Characteristic sigmoidal antagonist concentration-activity curves
